Read-outs that look alike come from different tables or passages of the source.
Experiments:
Assay type in all cases: biochemical
CYP3A4 [1] = target: T1, CYP3A4 (Homo sapiens, UniProt P08684); assay: Determination of IC50 against CYP3A4 by measurement of inhibition of midazolam metabolism (human liver microsomes, 1-hydroxymidazolam by LC-MS/MS); design: 0.1 mg/mL human liver microsomes; conditions: 2 μM midazolam, 0.1 mg/mL human liver microsomes
In short: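 Human liver microsomes (0.1 mg/mL) incubated 8 min with 2 μM midazolam and 1 mM NADPH in 100 mM potassium phosphate, pH 7.4. 1-Hydroxymidazolam quantified by LC-MS/MS (MRM) as peak area ratio to internal standard against a metabolite standard curve.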

CYP3A4 [2] = target: T1, CYP3A4; assay: Determination of compound Kiapp against recombinant CYP3A4 enzyme (BFC fluorescent substrate)
In short: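 Kiapp derived from initial velocities over the first 5 min of BFC (5 uM) oxidation, using Morrison's tight-binding equation for non-partial and Szedlacsek's for partial inhibitors. Inhibitor first pre-incubated ≥30 min with CYP3A4 (5.5 or 8 nM, ±b5) in pH 7.0 phosphate/TCEP/2% DMF at room temperature; 200 uM NADPH initiated.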

CYP3A4 [3] = target: T1, CYP3A4; assay: Determination of IC50 against CYP3A4 by measurement of inhibition of testosterone metabolism (human liver microsomes, 6-β-OH-testosterone by LC-MS/MS); design: 0.1 mg/mL human liver microsomes; conditions: read-out: IC50 (Testo.)
In short: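 6-β-OH-testosterone formation was read by LC-MS/MS (MRM, internal standard, standard curve) after eight minutes. Reaction contained testosterone 25 μM, NADPH 1 mM and microsomal protein 0.1 mg/mL in pH 7.4 potassium phosphate (100 mM).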

[4] = Baculo. enzyme preparation, read-out: Kiapp (BFC, Baculo.)
[5] = Super. enzyme preparation, read-out: Kiapp (BFC, Super.)

T1 sequence (P08684 whole entry): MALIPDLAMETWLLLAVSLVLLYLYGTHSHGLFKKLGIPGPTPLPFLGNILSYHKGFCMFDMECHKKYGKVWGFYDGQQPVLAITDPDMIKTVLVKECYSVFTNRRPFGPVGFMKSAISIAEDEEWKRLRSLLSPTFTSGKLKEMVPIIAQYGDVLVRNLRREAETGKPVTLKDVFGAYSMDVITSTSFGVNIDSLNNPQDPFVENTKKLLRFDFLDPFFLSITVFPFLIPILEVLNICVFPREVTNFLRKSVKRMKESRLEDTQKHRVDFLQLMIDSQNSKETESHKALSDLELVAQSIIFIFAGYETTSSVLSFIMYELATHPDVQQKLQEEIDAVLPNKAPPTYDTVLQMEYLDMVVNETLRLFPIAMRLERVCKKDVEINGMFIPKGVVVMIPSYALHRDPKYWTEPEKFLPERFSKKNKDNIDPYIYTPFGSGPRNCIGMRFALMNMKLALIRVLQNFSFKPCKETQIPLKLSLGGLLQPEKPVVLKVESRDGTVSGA

SMILES	IC50 (CYP3A4 [1]) [nM]	Ki (CYP3A4 [2]; [4]) [nM]	Ki (CYP3A4 [2]; [5]) [nM]	IC50 (CYP3A4 [3]) [nM]
COc1cncc(NS(=O)(=O)c2ccccc2C(=O)NC(C)C(C)C)c1 (stereo not drawn) [Example 313, N-(1,2-dimethylpropyl)-2-{[(5-methoxypyridin-3-yl)amino]sulfonyl}benzamide]	19	197	48.7	55
Cc1cncc(NS(=O)(=O)c2ccccc2C(=O)NC(C)C2CC2)c1 (stereo not drawn) [Example 315, N-(1-cyclopropylethyl)-2-{[(5-methylpyridin-3-yl)amino]sulfonyl}benzamide]	22	250	42.2	43
Cc1cncc(NS(=O)(=O)c2ccccc2C(=O)NCc2ccc(F)c(C(F)(F)F)c2)c1 [Example 316, N-[4-fluoro-3-(trifluoromethyl)benzyl]-2-{[(5-methylpyridin-3-yl)amino]sulfonyl}benzamide]	17	8.4	1.2	27
Cc1cncc(NS(=O)(=O)c2ccccc2C(=O)NC(C)C(C)C)c1 (stereo not drawn) [Example 317, N-(1,2-dimethylpropyl)2{[(5-methylpyridin-3-yl)amino]sulfonyl}benzamide]	15	144	51.6	19
Cc1cncc(NS(=O)(=O)c2ccccc2C(=O)NCc2ccc(Cl)c(Cl)c2)c1 [Example 318, N-(3,4-dichlorobenzyl)-2-{[(5-methylpyridin-3-yl)amino]sulfonyl}benzamide]	145	9.9	1.9	165
Cc1cncc(NS(=O)(=O)c2ccccc2C(=O)NCCc2ccccc2C)c1 [Example 319, N-[2-(2-methylphenyl)ethyl]-2-{[(5-methylpyridin-3-yl)amino]sulfonyl}benzamide]	10	4.3	7.2	11
Cc1cncc(NS(=O)(=O)c2ccccc2C(=O)N2CCCC2)c1 [Example 321, N-(5-methylpyridin-3-yl)-2-(pyrrolidin-1-ylcarbonyl)benzenesulfonamide]	94	195	460	129
CC(C)CCNC(=O)c1ccccc1S(=O)(=O)N(C)c1cccnc1 [Example 323, N-(3-methylbutyl)-2-{[methyl(pyridin-3-yl)amino]sulfonyl}benzamide]	28	210	221	59
CN(CC1CCCC1)C(=O)c1ccccc1S(=O)(=O)Nc1cccnc1 [Example 324, N-(cyclopentylmethyl)-N-methyl-2-[(pyridin-3-ylamino)sulfonyl]benzamide]	11	85.1	21.7	20
Cc1ccccc1CCNC(=O)c1ccccc1S(=O)(=O)N(C)c1cccnc1 [Example 325, N-[2-(2-methylphenyl)ethyl]-2-{[methyl(pyridin-3-yl)amino]sulfonyl}benzamide]	119	35	8.6	84
CCCN(CC1CC1)C(=O)c1ccccc1S(=O)(=O)N(C)c1cncc(OC)c1 [Example 329, N-(cyclopropylmethyl)-2-{[(5-methoxypyridin-3-yl)(methyl)amino]sulfonyl}-N-propylbenzamide]	32	34	17.7	58
CN(c1cccnc1)S(=O)(=O)c1ccccc1C(=O)NCC1CCCC1 [Example 332, N-(cyclopentylmethyl)-2-{[methyl(pyridin-3-yl)amino]sulfonyl}benzamide]	13	334	61.2	13
Cc1cncc(NS(=O)(=O)c2ccccc2C(=O)N2CC(C)CC(C)C2)c1 (stereo not drawn) [Example 333, 2-[(3,5-dimethylpiperidin-1-yl)carbonyl]-N-(5-methylpyridin-3-yl)benzenesulfonamide]	24	69.2	22.9	13
CCCCCN(C)C(=O)c1ccccc1S(=O)(=O)Nc1cncc(OC)c1 [Example 339, 2-{[(5-methoxypyridin-3-yl)amino]sulfonyl}-N-methyl-N-pentylbenzamide]	14	35.4	6.1	26
CCCCCNC(=O)c1ccccc1S(=O)(=O)N(C)c1cccnc1 [Example 340, 2-{[methyl(pyridin-3-yl)amino]sulfonyl}-N-pentylbenzamide]	41	338	92.2	44
CCCCCN(C)C(=O)c1ccccc1S(=O)(=O)Nc1cncc(C)c1 [Example 341, N-methyl-2-{[(5-methylpyridin-3-yl)amino]sulfonyl}-N-pentylbenzamide]	22	36.6	13.1	26
Cc1cncc(NS(=O)(=O)c2ccccc2C(=O)NCc2cccc(F)c2)c1 [Example 342, N-(3-fluorobenzyl)-2-{[(5-methylpyridin-3-yl)amino]sulfonyl}benzamide]	11	63	13.1	15
Cc1cncc(NS(=O)(=O)c2ccccc2C(=O)N2CCCC(C)(C)C2)c1 [Example 343, 2-[(3,3-dimethylpiperidin-1-yl)carbonyl]-N-(5-methylpyridin-3-yl)benzenesulfonamide]	37	206	60.3	80

Now from value to molecule:

IC50 (CYP3A4 [1]) [nM]	Ki (CYP3A4 [2]; [4]) [nM]	Ki (CYP3A4 [2]; [5]) [nM]	IC50 (CYP3A4 [3]) [nM]	SMILES
17	18.7	4.5	17	COc1cncc(NS(=O)(=O)c2ccccc2C(=O)NCc2ccc(Cl)c(Cl)c2)c1 [Example 314, N-(3,4-dichlorobenzyl)-2-{[(5-methoxypyridin-3-yl)amino]sulfonyl}benzamide]
6	10.1	28.4	8	Cc1cncc(NS(=O)(=O)c2ccccc2C(=O)NCc2ccc(F)c(F)c2)c1 [Example 320, N-(3,4-difluorobenzyl)-2-{[(5-methylpyridin-3-yl)amino]sulfonyl}benzamide]
11	54.4	19.8	15	COc1cncc(N(C)S(=O)(=O)c2ccccc2C(=O)NCc2cccc(F)c2)c1 [Example 322, N-(3-fluorobenzyl)-2-{[(5-methoxypyridin-3-yl)(methyl)amino]sulfonyl} benzamide]
132	884	273	164	CN(c1cccnc1)S(=O)(=O)c1ccccc1C(=O)N1CCOCC1 [Example 326, N-methyl-2-(morpholin-4-ylcarbonyl)-N-pyridin-3-ylbenzenesulfonamide]
> 750	> 1000	484	> 750	CN(c1cccnc1)S(=O)(=O)c1ccccc1C(=O)N1CCCC1 [Example 328, N-methyl-N-pyridin-3-yl-2-(pyrrolidin-1-ylcarbonyl)benzenesulfonamide]
60	204	22.7	55	Cc1cncc(NS(=O)(=O)c2ccccc2C(=O)NCC(C)(C)C)c1 [Example 330, N-(2,2-dimethylpropyl)-2-{[(5-methylpyridin-3-yl)amino]sulfonyl}benzamide]
12	75.2	10.9	14	CCCN(CC1CC1)C(=O)c1ccccc1S(=O)(=O)Nc1cncc(C)c1 [Example 331, N-(cyclopropylmethyl)-2-{[(5-methylpyridin-3-yl)amino]sulfonyl}-N-propylbenzamide]
12	82.6	9.1	17	Cc1cncc(NS(=O)(=O)c2ccccc2C(=O)NCC2CCCC2)c1 [Example 334, N-(cyclopentylmethyl)-2-{[(5-methylpyridin-3-yl)amino]sulfonyl}benzamide]
20	97.7	16.8	28	Cc1cncc(NS(=O)(=O)c2ccccc2C(=O)N(C)Cc2ccccc2)c1 [Example 335, N-benzyl-N-methyl-2-{[(5-methylpyridin-3-yl)amino]sulfonyl}benzamide]
37	319	68.2	19	COc1ccc(CNC(=O)c2ccccc2S(=O)(=O)N(C)c2cccnc2)cc1 [Example 336, N-(4-methoxybenzyl)-2-{[methyl(pyridin-3-yl)amino]sulfonyl}benzamide]
88	285	61.3	64	CCCN(CC1CC1)C(=O)c1ccccc1S(=O)(=O)N(C)c1cccnc1 [Example 337, N-(cyclopropylmethyl)-2-{[methyl(pyridin-3-yl)amino]sulfonyl}-N-propylbenzamide]
23	24	6.8	30	COc1cncc(NS(=O)(=O)c2ccccc2C(=O)N(C)CCC(C)C)c1 [Example 338, 2-{[(5-methoxypyridin-3-yl)amino]sulfonyl}-N-methyl-N-(3-methylbutyl)benzamide]

From patent US7868026B2, “Therapeutic compounds” (Pfizer Inc., priority 2005, dated 2011)
